The source of these data is US20090226395A1, “Pharmaceutical compositions of beta-lapachone and beta-lapachone analogs with improved tumor targeting potential” (ArQule, Inc., priority 2004, published 2009).

What is called IC50 is the concentration at which inhibition is half-maximal.

One data set deals with DLD-1 cells. The data set is described as follows: MTS cell viability assay, DLD-1 cells. Format: cell-based. The protocol: (§1) Cell viability is determined by measuring the activity of dehydrogenase enzymes in metabolically active cells using a tetrazolium compound, MTS. The assay is performed as described in Promega Technical Bulletin No. 169 (CellTiter 96 Aqueous Non-Radioactive Cell Proliferation Assay). Two cell lines, DLD-1 and NCM-460 are assayed (see, e.g., Table 2). Cells are maintained at 37° C., 5% CO2. Adherent cells are maintained DMEM media (4.5 g/L glucose) supplemented with 15% heat-inactivated FBS, 10 mM L-glutamine, and 10 mM Hepes pH 7.5. Suspension cells are maintained in RPMI 1640 media, supplemented with 10% heat-inactivated FBS and 10 mM Hepes pH 7.5. […] Candidate compounds, including the polymer-modified therapeutics to be tested, are serially diluted in the indicated solvents are, further diluted in cell culture media, and then added to cells. […] MTS stock solution (MTS 2 gm/L, PMS […] in PBS) is added to the cells (final concentration MTS […] and PMS 7.67 mg/L) and incubated for 4 hours. […] The IC50 is defined as the concentration of compound that results in a 50% reduction in the number of viable cells as compared to control wells treated with DMSO only (0.33%) and 0.3% SDS, and is calculated using non-linear regression analysis.

The test system of the next data set is NCM-460 cells. The data set is described as follows: MTS cell viability assay, NCM-460 cells. The data set is classed as cell-based. The protocol: as §1
The nature of data set [1]: Hydrolytic release of β-lapachone or ketal from poly-L-glutamate conjugates, monitored by HPLC. The data set is classed as physicochemical. From the text:
[…] The complete release of 2,2-dimethyl-3,4-dihydro-2H-benzo[h]chromene-5,6-dione from the conjugate is achieved within 2-3 days as monitored by HPLC. In addition to the 2,2-dimethyl-3,4-dihydro-2H-benzo[h]chromene-5,6-dione peak, two additional peaks are detected in the HPLC chromatogram. These peaks are believed to be products of the degradation of 2,2-dimethyl-3,4-dihydro-2H-benzo[h]chromene-5,6-dione and an alternate hydrolysis product of conjugate. The concentration of released 2,2-dimethyl-3,4-dihydro-2′-1-benzo[h]chromene-5,6-dione is calculated by comparing the peak areas with the previously obtained calibration curve of 2,2-dimethyl-3,4-dihydro-2H-benzo[h]chromene-5,6-dione standard. […] Loading on the polymer is then calculated as follows: […]
The conjugate is dissolved in water at a concentration of about 0.3 mg/ml and sonicated to facilitate dissolution. […] The concentration of released 2,2-dimethyl-3,4-dihydro-2H-benzo[h]chromene-5,6-dione is determined by HPLC and the quantity calculated by comparing the peak areas with a previously obtained calibration curve of 2,2-dimethyl-3,4-dihydro-2H-benzo[h]chromene-5,6-dione standard, as described above in Example 10. […]

A further data set relates to human cancer cell lines. The conditions noted are these: single agent; typical range; read-out: antineoplastic activity against human cancer cell lines (IC50); cited from earlier work.
The target of data set [2] is T1, human DNA Topoisomerases I (Homo sapiens, UniProt P11387).
T1 sequence (P11387 1-765): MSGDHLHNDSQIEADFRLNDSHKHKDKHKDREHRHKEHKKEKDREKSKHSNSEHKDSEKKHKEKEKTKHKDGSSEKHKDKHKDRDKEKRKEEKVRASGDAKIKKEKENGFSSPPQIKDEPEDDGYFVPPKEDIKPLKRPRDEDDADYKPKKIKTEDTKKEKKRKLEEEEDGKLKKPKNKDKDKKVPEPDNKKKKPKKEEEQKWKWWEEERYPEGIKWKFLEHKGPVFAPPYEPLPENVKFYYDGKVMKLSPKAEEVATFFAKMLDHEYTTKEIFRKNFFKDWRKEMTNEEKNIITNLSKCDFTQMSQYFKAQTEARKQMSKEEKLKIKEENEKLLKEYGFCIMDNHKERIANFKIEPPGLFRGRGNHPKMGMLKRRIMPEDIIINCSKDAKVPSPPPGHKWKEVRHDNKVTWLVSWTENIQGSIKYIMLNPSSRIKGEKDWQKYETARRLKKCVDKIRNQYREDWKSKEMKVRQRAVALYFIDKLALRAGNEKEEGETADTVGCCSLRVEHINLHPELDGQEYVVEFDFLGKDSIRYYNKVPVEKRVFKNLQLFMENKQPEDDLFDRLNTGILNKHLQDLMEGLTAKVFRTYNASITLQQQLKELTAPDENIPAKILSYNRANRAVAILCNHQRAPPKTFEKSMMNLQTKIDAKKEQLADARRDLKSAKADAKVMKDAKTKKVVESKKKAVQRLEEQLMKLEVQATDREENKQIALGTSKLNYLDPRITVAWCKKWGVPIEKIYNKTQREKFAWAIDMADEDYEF
The conditions noted are these: cited from earlier work.

In data set [3] the test system is human peripheral blood mononuclear cells (PBMC). The conditions noted are these: cited from earlier work.
In data set [4] the target is human DNA Topoisomerases II (Homo sapiens, UniProt P11388). The conditions noted are these: cited from earlier work.
human DNA Topoisomerases II, sequence (P11388 whole entry): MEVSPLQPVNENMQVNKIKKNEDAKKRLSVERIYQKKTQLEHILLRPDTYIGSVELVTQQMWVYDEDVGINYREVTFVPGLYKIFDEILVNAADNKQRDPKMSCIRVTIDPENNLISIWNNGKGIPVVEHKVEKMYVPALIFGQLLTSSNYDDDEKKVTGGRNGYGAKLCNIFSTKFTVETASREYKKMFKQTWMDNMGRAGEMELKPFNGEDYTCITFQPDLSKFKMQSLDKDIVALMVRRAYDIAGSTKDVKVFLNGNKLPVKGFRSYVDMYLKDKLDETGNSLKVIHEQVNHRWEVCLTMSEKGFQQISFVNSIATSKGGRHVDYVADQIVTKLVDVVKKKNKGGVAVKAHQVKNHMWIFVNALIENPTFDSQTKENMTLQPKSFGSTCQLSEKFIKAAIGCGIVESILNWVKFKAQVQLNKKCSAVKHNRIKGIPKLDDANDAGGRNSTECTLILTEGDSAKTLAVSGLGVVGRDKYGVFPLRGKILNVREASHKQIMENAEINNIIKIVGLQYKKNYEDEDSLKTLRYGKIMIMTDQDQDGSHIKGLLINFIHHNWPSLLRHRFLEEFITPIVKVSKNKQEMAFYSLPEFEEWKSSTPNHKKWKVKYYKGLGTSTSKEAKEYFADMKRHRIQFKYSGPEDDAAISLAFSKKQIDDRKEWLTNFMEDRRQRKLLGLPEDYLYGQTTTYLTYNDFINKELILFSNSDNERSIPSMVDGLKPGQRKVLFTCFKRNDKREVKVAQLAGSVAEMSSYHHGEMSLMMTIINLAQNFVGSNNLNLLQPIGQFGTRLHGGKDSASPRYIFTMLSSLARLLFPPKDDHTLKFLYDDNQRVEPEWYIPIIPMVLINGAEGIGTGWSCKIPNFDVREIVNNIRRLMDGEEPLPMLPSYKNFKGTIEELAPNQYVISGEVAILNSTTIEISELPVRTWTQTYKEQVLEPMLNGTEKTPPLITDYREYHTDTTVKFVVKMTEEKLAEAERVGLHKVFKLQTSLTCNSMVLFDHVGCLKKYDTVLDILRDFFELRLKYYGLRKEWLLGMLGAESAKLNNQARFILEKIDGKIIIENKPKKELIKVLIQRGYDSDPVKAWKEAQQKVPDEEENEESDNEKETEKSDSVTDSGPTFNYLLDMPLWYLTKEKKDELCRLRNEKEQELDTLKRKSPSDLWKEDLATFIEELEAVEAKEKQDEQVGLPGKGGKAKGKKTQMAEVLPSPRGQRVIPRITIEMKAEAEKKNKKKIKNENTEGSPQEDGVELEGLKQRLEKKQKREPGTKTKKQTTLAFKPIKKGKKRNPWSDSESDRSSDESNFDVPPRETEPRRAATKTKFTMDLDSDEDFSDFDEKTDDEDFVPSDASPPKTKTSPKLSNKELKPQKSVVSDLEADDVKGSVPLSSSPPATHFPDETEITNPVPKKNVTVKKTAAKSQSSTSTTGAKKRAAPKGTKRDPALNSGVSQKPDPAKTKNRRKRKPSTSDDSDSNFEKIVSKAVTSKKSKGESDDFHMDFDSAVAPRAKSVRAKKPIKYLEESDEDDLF

Turning to “5-(acetyloxy)-2,2-dimethyl-3,4-dihydro-2H-benzo[h]chromen-6-yl glycinate γ-poly-L-glutamate”, the IC50 in the data set on DLD-1 cells (incubation time 20 hours) came out at 4.42 µM; in the data set with DLD-1 cells (incubation time 72 hours), 1.39 µM; in the data set with NCM-460 cells (incubation time 20 hours), 8.12 µM; in the data set with NCM-460 cells (incubation time 72 hours), 3.66 µM. In data set [1] (pH 11.4), the “time for hydrolysis of β-lapachone from the conjugate” value is on record as 20 min. Also, in data set [1] (phosphate buffer pH 9.6, about 0.1 mg/ml), the “time to complete release of β-lapachone from the conjugate” value lay within 2 to 3 days.
Consider `CC1(C)CCC2=C(O1)c1ccccc1C(=O)C2=O` [β-lapachone, 3,4-dihydro-2,2-dimethyl-2H-naphtho[1,2-b]pyran-5,6-dione, reference compound], for which the IC50 was 3.13 µM in the data set on DLD-1 cells (Homo sapiens, DLD-1, incubation time 20 hours); 1.71 µM with DLD-1 cells (Homo sapiens, DLD-1, incubation time 72 hours); 1 to 10 µM in the data set with human cancer cell lines; 8.19 µM with NCM-460 cells (Homo sapiens, NCM460, incubation time 20 hours); 3.25 µM with NCM-460 cells (Homo sapiens, NCM460, incubation time 72 hours). Moreover, the “in vitro inhibition of human DNA Topoisomerase I” value in data set [2] is recorded as “potent in vitro inhibition”. Further, in data set [3], the “cytotoxic effects on normal fresh or proliferating human PBMC” value is on record as “No cytotoxic effects were observed”. Besides, the “in vitro inhibition of human DNA Topoisomerase II” value in data set [4] is reported as “potent in vitro inhibition”.
“(2,2-dimethyl-5-oxo-3,4-dihydro-2H,5H-spiro[benzo[h]chromene-6,2′-[1,3]dioxolan]-4′-yl)methyl γ-poly-L-glutamate sodium”: the IC50 in the data set with DLD-1 cells (incubation time 20 hours), in the data set on DLD-1 cells (incubation time 72 hours), in the data set on NCM-460 cells (incubation time 20 hours) and with NCM-460 cells (incubation time 72 hours) was greater than 100 µM throughout.
